Reference: article PMC5518096, “Use of a special Brazilian red-light emitting railroad worm Luciferase in bioassays of NEK7 protein Kinase and Creatine Kinase” (BMC Biochemistry, 2017)

Assays:
Test in all cases: ATP consumption, coupled red luciferase luminescence
Format in all cases: biochemical
[1] = target: T1, sMtCK (6xHis-sarcomeric creatine kinase, pUS01) (Homo sapiens, UniProt P17540); conditions: 5 mM creatine, 50 uM ATP, 4 mM MgSO4, pH 8, 37 °C, 30 min
T1 construct: gene CKMT2; 6xHis, pET3b plasmid pUS01 (Schlattner), E. coli BL21(DE3)

[2] = target: T2, uMtCK (6xHis-ubiquitous creatine kinase, pUS04) (Homo sapiens, UniProt P12532); conditions: 5 mM creatine, 50 uM ATP, 4 mM MgSO4, pH 8, 37 °C, 30 min
T2 construct: gene CKMT1A; 6xHis, pET3b plasmid pUS04 (Schlattner), E. coli BL21(DE3)

NEK7 (6xHis-NEK7) = NEK7 (6xHis-NEK7) (Homo sapiens, UniProt Q8TDX7); conditions: 1 uM ATP, protein substrates NEK9(764-976), MAT1 or CC2D1A(501-940), 4 mM MgSO4, pH 8, 37 °C
NEK7 (6xHis-NEK7), sequence (Q8TDX7 whole entry): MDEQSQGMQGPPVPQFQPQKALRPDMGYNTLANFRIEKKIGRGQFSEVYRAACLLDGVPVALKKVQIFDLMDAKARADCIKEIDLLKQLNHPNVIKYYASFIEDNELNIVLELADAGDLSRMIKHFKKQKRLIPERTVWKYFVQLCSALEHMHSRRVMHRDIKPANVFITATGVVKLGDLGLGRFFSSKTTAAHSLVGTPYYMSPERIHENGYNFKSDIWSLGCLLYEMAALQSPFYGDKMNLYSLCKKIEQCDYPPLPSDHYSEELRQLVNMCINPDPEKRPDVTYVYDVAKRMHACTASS

Structure (SMILES) | ATP consumption, coupled red luciferase luminescence [1] | ATP consumption, coupled red luciferase luminescence [2] | ATP consumption, coupled red luciferase luminescence (NEK7 (6xHis-NEK7))
CN(CC(=O)O)C(=N)N [creatine] | when creatine was added, the light emission was significantly decreased | – | –
Nc1ncnc2c1ncn2[C@@H]1O[C@H](COP(=O)(O)OP(=O)(O)OP(=O)(O)O)[C@@H](O)[C@H]1O [ATP] | ATP was consumed only in the presence of creatine kinase and creatine | ATP was consumed only in the presence of creatine kinase and creatine | ATP consumption by NEK7, due to its phosphorylation of substrate proteins/domains
